Numbers after ± are expanded uncertainties.
Details: for mass density: Vibrating tube method; for vapor or sublimation pressure: Closed cell (Static) method

FC(F)=C(F)C(F)(F)F [hexafluoropropene]
Details	mass density [kg/m3]
355.27 K, 1594.4 kPa, Fluid (supercritical or subcritical phases)	103.05 ± 0.15
355.27 K, 1615.6 kPa, Fluid (supercritical or subcritical phases)	104.91 ± 0.16
355.27 K, 1637.4 kPa, Fluid (supercritical or subcritical phases)	106.88 ± 0.16
355.27 K, 1658.5 kPa, Fluid (supercritical or subcritical phases)	108.66 ± 0.16
355.27 K, 1679.5 kPa, Fluid (supercritical or subcritical phases)	110.49 ± 0.16
355.27 K, 1700.6 kPa, Fluid (supercritical or subcritical phases)	112.4 ± 0.17
355.27 K, 1722 kPa, Fluid (supercritical or subcritical phases)	114.41 ± 0.17
355.27 K, 1742.9 kPa, Fluid (supercritical or subcritical phases)	116.28 ± 0.17
355.27 K, 1765.2 kPa, Fluid (supercritical or subcritical phases)	118.41 ± 0.18
355.27 K, 1787.1 kPa, Fluid (supercritical or subcritical phases)	120.47 ± 0.18
355.27 K, 1808.3 kPa, Fluid (supercritical or subcritical phases)	122.49 ± 0.18
355.27 K, 1829.9 kPa, Fluid (supercritical or subcritical phases)	124.54 ± 0.19
355.27 K, 1850.6 kPa, Fluid (supercritical or subcritical phases)	126.59 ± 0.19
355.27 K, 1872.5 kPa, Fluid (supercritical or subcritical phases)	128.81 ± 0.2
355.27 K, 1894.5 kPa, Fluid (supercritical or subcritical phases)	131.08 ± 0.2
355.27 K, 1916.5 kPa, Fluid (supercritical or subcritical phases)	133.35 ± 0.2
355.27 K, 1938.7 kPa, Fluid (supercritical or subcritical phases)	135.65 ± 0.21
355.27 K, 1959.7 kPa, Fluid (supercritical or subcritical phases)	137.89 ± 0.21
355.27 K, 1982.8 kPa, Fluid (supercritical or subcritical phases)	140.34 ± 0.22
355.27 K, 2005.5 kPa, Fluid (supercritical or subcritical phases)	142.79 ± 0.22
355.27 K, 2026.6 kPa, Fluid (supercritical or subcritical phases)	145.09 ± 0.23
355.27 K, 2048.1 kPa, Fluid (supercritical or subcritical phases)	147.46 ± 0.23
355.27 K, 2070.2 kPa, Fluid (supercritical or subcritical phases)	150.03 ± 0.24
355.27 K, 2091.7 kPa, Fluid (supercritical or subcritical phases)	152.48 ± 0.24
355.27 K, 2135.3 kPa, Fluid (supercritical or subcritical phases)	157.72 ± 0.25
355.27 K, 2158.3 kPa, Fluid (supercritical or subcritical phases)	160.53 ± 0.26
355.27 K, 2179.4 kPa, Fluid (supercritical or subcritical phases)	163.15 ± 0.26
355.27 K, 2202.1 kPa, Fluid (supercritical or subcritical phases)	165.99 ± 0.27
355.27 K, 2224 kPa, Fluid (supercritical or subcritical phases)	168.96 ± 0.28
355.27 K, 2247.3 kPa, Fluid (supercritical or subcritical phases)	172.07 ± 0.29
355.27 K, 2269.2 kPa, Fluid (supercritical or subcritical phases)	174.95 ± 0.3
355.27 K, 2292 kPa, Fluid (supercritical or subcritical phases)	178.14 ± 0.3
355.27 K, 2312.5 kPa, Fluid (supercritical or subcritical phases)	181.03 ± 0.31
355.27 K, 2334.2 kPa, Fluid (supercritical or subcritical phases)	184.18 ± 0.32
355.27 K, 2357.3 kPa, Fluid (supercritical or subcritical phases)	187.61 ± 0.34
355.27 K, 2380.5 kPa, Fluid (supercritical or subcritical phases)	191.26 ± 0.34
355.27 K, 2392.5 kPa, Fluid (supercritical or subcritical phases)	193.1 ± 0.35
355.27 K, 2415.5 kPa, Fluid (supercritical or subcritical phases)	196.68 ± 0.36
355.27 K, 2439.9 kPa, Fluid (supercritical or subcritical phases)	200.64 ± 0.38
355.27 K, 2460.5 kPa, Fluid (supercritical or subcritical phases)	204.27 ± 0.38
355.27 K, 2484.5 kPa, Fluid (supercritical or subcritical phases)	208.35 ± 0.39
355.27 K, 2507 kPa, Fluid (supercritical or subcritical phases)	212.34 ± 0.41
355.27 K, 2520.2 kPa, Fluid (supercritical or subcritical phases)	214.82 ± 0.43
355.27 K, 2544.4 kPa, Fluid (supercritical or subcritical phases)	219.44 ± 0.45
355.27 K, 2556.6 kPa, Fluid (supercritical or subcritical phases)	221.88 ± 0.45
355.27 K, 2578.3 kPa, Fluid (supercritical or subcritical phases)	226.29 ± 0.47
355.27 K, 2599.8 kPa, Fluid (supercritical or subcritical phases)	230.72 ± 0.5
355.27 K, 2622.7 kPa, Fluid (supercritical or subcritical phases)	235.78 ± 0.52
355.27 K, 2645.2 kPa, Fluid (supercritical or subcritical phases)	240.85 ± 0.54
355.27 K, 2666.2 kPa, Fluid (supercritical or subcritical phases)	245.89 ± 0.57
355.27 K, 2688.5 kPa, Fluid (supercritical or subcritical phases)	251.47 ± 0.61
355.27 K, 2710.9 kPa, Fluid (supercritical or subcritical phases)	257.56 ± 0.66
355.27 K, 2733.3 kPa, Fluid (supercritical or subcritical phases)	263.91 ± 0.73
355.27 K, 2754.7 kPa, Fluid (supercritical or subcritical phases)	270.59 ± 0.74
355.27 K, 2776.5 kPa, Fluid (supercritical or subcritical phases)	277.69 ± 0.8
355.27 K, 2797.6 kPa, Fluid (supercritical or subcritical phases)	285.33 ± 0.87
355.27 K, 2818.7 kPa, Fluid (supercritical or subcritical phases)	293.63 ± 0.97
355.27 K, 2839.2 kPa, Fluid (supercritical or subcritical phases)	302.86 ± 1.1
355.27 K, 2859.6 kPa, Fluid (supercritical or subcritical phases)	313.18 ± 1.3
355.27 K, 2880.7 kPa, Fluid (supercritical or subcritical phases)	325.44 ± 1.4
355.27 K, 2900.2 kPa, Fluid (supercritical or subcritical phases)	339.29 ± 3.7
355.27 K, 2901.3 kPa, Fluid (supercritical or subcritical phases)	340.48 ± 4.2
355.27 K, 2902.9 kPa, Fluid (supercritical or subcritical phases)	341.95 ± 9.1
355.27 K, 2904 kPa, Fluid (supercritical or subcritical phases)	342.82 ± 9.8
355.27 K, 2905.6 kPa, Fluid (supercritical or subcritical phases)	344.36 ± 11
355.27 K, 2906.7 kPa, Fluid (supercritical or subcritical phases)	345.34 ± 12
355.27 K, 2908.4 kPa, Fluid (supercritical or subcritical phases)	347.2 ± 7.7
355.27 K, 2909.4 kPa, Fluid (supercritical or subcritical phases)	348.62 ± 7.7
355.27 K, 2910.6 kPa, Fluid (supercritical or subcritical phases)	349.91 ± 7.3
355.27 K, 2911.7 kPa, Fluid (supercritical or subcritical phases)	352.16 ± 2.5
355.27 K, 2913.4 kPa, Fluid (supercritical or subcritical phases)	357.67 ± 3
355.27 K, 2914.7 kPa, Fluid (supercritical or subcritical phases)	388.98 ± 7.1
355.27 K, 2915.5 kPa, Fluid (supercritical or subcritical phases)	400.54 ± 8.7
357.01 K, 3028.5 kPa, Liquid	789.77 ± 2.5
357.01 K, 3030.8 kPa, Liquid	791.93 ± 2.4
357.01 K, 3032.9 kPa, Liquid	793.76 ± 2.4
357.01 K, 3035 kPa, Liquid	795.08 ± 2.4
357.01 K, 3037.1 kPa, Liquid	796.63 ± 2.4
357.01 K, 3039.5 kPa, Liquid	798.44 ± 2.4
357.01 K, 3041.7 kPa, Liquid	799.96 ± 2.4
357.01 K, 3044 kPa, Liquid	801.6 ± 2.4
357.01 K, 3046 kPa, Liquid	802.75 ± 2.4
357.01 K, 3052 kPa, Liquid	806.74 ± 2.5
357.01 K, 3055.7 kPa, Liquid	808.82 ± 2.6
357.01 K, 3059.3 kPa, Liquid	810.72 ± 2.7
357.01 K, 3062.9 kPa, Liquid	812.63 ± 2.8
357.01 K, 3066.3 kPa, Liquid	814.7 ± 2.8
357.01 K, 3069.9 kPa, Liquid	816.53 ± 2.4
357.01 K, 3073.4 kPa, Liquid	818.11 ± 2.4
357.01 K, 3077.1 kPa, Liquid	819.71 ± 2.4
357.01 K, 3081.1 kPa, Liquid	821.77 ± 2.3
357.01 K, 3084.7 kPa, Liquid	823.28 ± 2.3
357.01 K, 3088.4 kPa, Liquid	824.79 ± 2.2
357.01 K, 3095.6 kPa, Liquid	828.01 ± 2.3
357.01 K, 3097.6 kPa, Liquid	828.88 ± 2.3
357.01 K, 3104.3 kPa, Liquid	831.16 ± 2
357.01 K, 3114.1 kPa, Liquid	834.77 ± 2
357.01 K, 3123.9 kPa, Liquid	838.1 ± 1.9
357.01 K, 3133.7 kPa, Liquid	841.6 ± 1.8
357.01 K, 3153.7 kPa, Liquid	847.97 ± 1.7
357.01 K, 3163.8 kPa, Liquid	850.53 ± 1.7
357.01 K, 3173.8 kPa, Liquid	853.47 ± 1.6
357.01 K, 3184.9 kPa, Liquid	856.37 ± 1.6
357.01 K, 3195 kPa, Liquid	858.9 ± 1.6
357.01 K, 3205.2 kPa, Liquid	861.29 ± 1.6
357.01 K, 3230.2 kPa, Liquid	866.99 ± 1.4
357.01 K, 3243.1 kPa, Liquid	869.66 ± 1.4
357.01 K, 3256.4 kPa, Liquid	872.23 ± 1.4
357.01 K, 3269.5 kPa, Liquid	874.91 ± 1.4
357.01 K, 3282.6 kPa, Liquid	877.54 ± 1.4
357.01 K, 3295.4 kPa, Liquid	879.85 ± 1.4
357.01 K, 3307.9 kPa, Liquid	882.22 ± 1.3
357.01 K, 3320.3 kPa, Liquid	884.31 ± 1.3
357.01 K, 3334 kPa, Liquid	886.47 ± 1.3
357.01 K, 3347.2 kPa, Liquid	888.84 ± 1.3
357.01 K, 3373.4 kPa, Liquid	892.84 ± 1.3
357.01 K, 3387.8 kPa, Liquid	895.05 ± 1.3
357.01 K, 3400.4 kPa, Liquid	896.81 ± 1.2
357.01 K, 3418.8 kPa, Liquid	899.41 ± 1.2
357.01 K, 3438.2 kPa, Liquid	902.07 ± 1.2
357.01 K, 3457.5 kPa, Liquid	904.69 ± 1.2
357.01 K, 3477.9 kPa, Liquid	907.3 ± 1.2
357.01 K, 3514.9 kPa, Liquid	911.85 ± 1.2
357.01 K, 3540.5 kPa, Liquid	914.94 ± 1.2
357.01 K, 3590.4 kPa, Liquid	920.73 ± 1.2
357.01 K, 3614.6 kPa, Liquid	923.49 ± 1.2
357.01 K, 3639.2 kPa, Liquid	926.14 ± 1.2
357.01 K, 3664.9 kPa, Liquid	928.77 ± 1.1
357.01 K, 3689.5 kPa, Liquid	931.28 ± 1.1
357.01 K, 3714.8 kPa, Liquid	933.72 ± 1.1
357.01 K, 3740.1 kPa, Liquid	936.03 ± 1.1
357.01 K, 3764.8 kPa, Liquid	938.27 ± 1.1

Liquid
Details	vapor or sublimation pressure [kPa]
356.24 K	2965.3 ± 5.2
356.76 K	2998.5 ± 5.3

Reference: the NIST ThermoML archive (doi:10.1021/je900596d)
